Test results reported in patent US20050037033A1, “Microbicidal compositions and methods and use” (priority 2003, published 2005).

Assay: Cytotoxicity assay
Type: cell-based
Method: The cells listed in Table 4 were incubated for the indicated period of time with different concentrations of ciclopiroxolamine and cell viability was measured by the 3-(4,5-dimethylthiazol-2-yl)-2,5-diphenyltetrazolium bromide (MTT) assay or by treatment with propidium iodide and fluorescence. Percent viability was calculated with respect to the viability of mock-exposed cells (cells incubated without compounds).
In the MTT assay, the effect of each agent on cell viability was determined using an assay in which dehydrogenases in viable cells cleave the compound 3-(4,5-dimethylthiazol-2-yl)-2,5-diphenyltetrazolium bromide (MTT), yielding a purple product (formazan) which can be measured spectrophotometrically (Pauwels et al., 1988). Cells were seeded into 96 well plates at a density of 3×10^4 cells/well 24 hours prior to introduction of the microbicides. Agents were diluted in as previously indicated. Agents were added to triplicate wells in half-log serial dilutions. Cells were incubated in the absence or presence of each agent at 37° C. under 5% CO2 and 90% humidity for 2 hours. At the conclusion of each experiment, cells were washed, replenished with fresh medium and incubated with MTT (250 μl/well) for 2 hours at 37° C. Following removal of the medium (by aspiration), intracellular formazan crystals were solubilized with 10% Triton X-100 in acidified isopropanol. The resulting solutions were assayed spectrophotometrically at 570 nm and corrected for non-specific absorption at 690 nm. In this assay, measured absorbance is proportional to the viable cell number, and inversely proportional to the degree of cytotoxicity.

Cc1cc(C2CCCCC2)n(O)c(=O)c1.NCCO [CO, 6-Cyclohexyl-1-hydroxy-4-methyl-2-(1H)-pyridone ethanolamine salt]
CC50 at 2 h (African green monkey, Vero cells, Series 4, 2 hour incubation): > 200 µg/mL
CC50 at 2 h (human, P4-R5 cells, Series 2, P4-R5, 2 hour incubation, 100 μg/ml highest conc tested): > 100 µg/mL
CC50 at 2 h (human, VK-2/E6E7 cells (vaginal epithelium cell line), Series 2, VK-2/E6E7, 2 hour incubation): 100 µg/mL
